What was measured:
Integrin alpha-V/beta-3 [1] = molecular target: T1, Integrin alpha-V/beta-3 (Homo sapiens, UniProt P05106+P06756); assay: Inhibition of Integrin alphav-beta3 receptor by SPRA assay; format: protein-complex assay
[2] = molecular target: Integrin alpha-IIb/beta-3 (Homo sapiens, UniProt P05106+P08514); assay: Inhibition of Integrin alpha-2b-beta-3 receptor by SPRA assay; format: protein-complex assay
Integrin alpha-V/beta-5 = Integrin alpha-V/beta-5 (Homo sapiens, UniProt P06756+P18084); assay: Inhibition of Integrin alphav-beta5 receptor expressed in HEK293 cell line; format: cell-based
Integrin alpha-V/beta-3 [3] = molecular target: T1, Integrin alpha-V/beta-3; assay: Inhibition of Integrin alphav-beta3 receptor expressed in HEK293 cells; format: cell-based
Integrin alpha-V/beta-6 = Integrin alpha-V/beta-6 (Homo sapiens, UniProt P06756+P18564); assay: Inhibition of Integrin alphav-beta6 receptor expressed in HT29 cell line; format: cell-based, HT-29
Integrin alpha-V/beta-1 = Integrin alpha-V/beta-1 (Homo sapiens, UniProt P05556+P06756); assay: Inhibition of Integrin alphav-beta1 receptor expressed in HEK293 cell line; format: cell-based
[4] = Half life in rat at 5 mg/kg, iv; format: ADME, organism-based; set-up: dose 5 mg/kg, route intravenous; conditions: in vivo
[5] = Clearance in rat at 5 mg/kg, iv; format: ADME, organism-based; set-up: dose 5 mg/kg, route intravenous; conditions: in vivo
[6] = Volume of distribution in rat at 5 mg/kg, iv; format: ADME, organism-based; set-up: dose 5 mg/kg, route intravenous; conditions: in vivo, read-out: Vdss
Rattus norvegicus = assay: AUC/dose(mg/kg) in orally dosed rat at 10 mg/kg; format: ADME, organism-based, Plasma; set-up: dose 10 mg/kg, route oral; conditions: in vivo, po
[7] = Bioavailability in rat at 5 mg/kg, iv; format: ADME, organism-based; conditions: in vivo

Integrin alpha-V/beta-1, sequence (P05556 21-798 limits assumed): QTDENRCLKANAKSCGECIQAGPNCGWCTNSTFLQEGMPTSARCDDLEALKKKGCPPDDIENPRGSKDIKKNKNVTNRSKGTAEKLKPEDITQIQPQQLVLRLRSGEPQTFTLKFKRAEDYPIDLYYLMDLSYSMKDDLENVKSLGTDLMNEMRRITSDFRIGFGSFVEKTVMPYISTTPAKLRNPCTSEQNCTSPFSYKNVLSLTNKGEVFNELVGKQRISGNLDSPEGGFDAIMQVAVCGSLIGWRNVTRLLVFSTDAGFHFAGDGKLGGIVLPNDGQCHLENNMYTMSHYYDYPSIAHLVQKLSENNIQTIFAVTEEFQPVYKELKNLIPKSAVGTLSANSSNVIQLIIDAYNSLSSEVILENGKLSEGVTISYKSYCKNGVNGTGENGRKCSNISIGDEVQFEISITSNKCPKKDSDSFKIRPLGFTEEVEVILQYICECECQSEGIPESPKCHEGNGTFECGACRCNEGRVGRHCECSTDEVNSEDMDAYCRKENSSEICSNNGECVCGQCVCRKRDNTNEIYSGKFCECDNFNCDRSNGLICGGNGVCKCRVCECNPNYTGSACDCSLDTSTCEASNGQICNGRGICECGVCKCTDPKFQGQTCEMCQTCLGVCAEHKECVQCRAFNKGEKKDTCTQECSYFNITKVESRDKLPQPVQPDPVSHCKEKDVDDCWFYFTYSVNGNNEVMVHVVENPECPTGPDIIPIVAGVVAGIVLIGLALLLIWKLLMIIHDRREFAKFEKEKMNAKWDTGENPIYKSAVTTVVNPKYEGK
Integrin alpha-V/beta-1, sequence (P06756 31-889 limits assumed): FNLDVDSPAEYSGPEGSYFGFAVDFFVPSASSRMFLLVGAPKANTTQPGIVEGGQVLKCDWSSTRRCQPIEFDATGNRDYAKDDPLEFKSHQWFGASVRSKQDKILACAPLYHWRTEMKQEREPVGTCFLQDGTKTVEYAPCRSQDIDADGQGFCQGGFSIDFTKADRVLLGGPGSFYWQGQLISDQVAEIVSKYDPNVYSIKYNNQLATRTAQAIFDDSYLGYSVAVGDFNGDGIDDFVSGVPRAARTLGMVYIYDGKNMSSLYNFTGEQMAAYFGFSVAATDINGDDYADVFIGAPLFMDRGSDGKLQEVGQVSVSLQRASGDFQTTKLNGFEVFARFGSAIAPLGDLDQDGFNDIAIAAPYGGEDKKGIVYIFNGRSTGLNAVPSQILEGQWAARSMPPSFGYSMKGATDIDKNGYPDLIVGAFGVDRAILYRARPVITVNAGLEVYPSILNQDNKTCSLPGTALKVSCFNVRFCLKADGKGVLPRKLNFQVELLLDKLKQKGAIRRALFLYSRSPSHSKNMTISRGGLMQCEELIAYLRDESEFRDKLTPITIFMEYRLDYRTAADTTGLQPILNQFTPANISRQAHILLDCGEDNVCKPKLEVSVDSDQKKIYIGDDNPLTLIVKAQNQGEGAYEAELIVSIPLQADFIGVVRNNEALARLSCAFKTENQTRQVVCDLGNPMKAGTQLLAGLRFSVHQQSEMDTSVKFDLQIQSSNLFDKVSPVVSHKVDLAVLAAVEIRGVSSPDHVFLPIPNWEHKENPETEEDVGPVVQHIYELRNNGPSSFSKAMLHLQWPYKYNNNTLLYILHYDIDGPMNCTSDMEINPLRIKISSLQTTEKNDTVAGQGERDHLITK
Integrin alpha-V/beta-1, sequence (P06756 891-1048 limits assumed): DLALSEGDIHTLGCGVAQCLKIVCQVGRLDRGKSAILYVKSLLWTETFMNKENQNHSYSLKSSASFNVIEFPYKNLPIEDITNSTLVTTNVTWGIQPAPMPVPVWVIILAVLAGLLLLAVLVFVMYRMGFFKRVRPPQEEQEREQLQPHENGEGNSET
Integrin alpha-IIb/beta-3, sequence (P05106 27-788 limits assumed): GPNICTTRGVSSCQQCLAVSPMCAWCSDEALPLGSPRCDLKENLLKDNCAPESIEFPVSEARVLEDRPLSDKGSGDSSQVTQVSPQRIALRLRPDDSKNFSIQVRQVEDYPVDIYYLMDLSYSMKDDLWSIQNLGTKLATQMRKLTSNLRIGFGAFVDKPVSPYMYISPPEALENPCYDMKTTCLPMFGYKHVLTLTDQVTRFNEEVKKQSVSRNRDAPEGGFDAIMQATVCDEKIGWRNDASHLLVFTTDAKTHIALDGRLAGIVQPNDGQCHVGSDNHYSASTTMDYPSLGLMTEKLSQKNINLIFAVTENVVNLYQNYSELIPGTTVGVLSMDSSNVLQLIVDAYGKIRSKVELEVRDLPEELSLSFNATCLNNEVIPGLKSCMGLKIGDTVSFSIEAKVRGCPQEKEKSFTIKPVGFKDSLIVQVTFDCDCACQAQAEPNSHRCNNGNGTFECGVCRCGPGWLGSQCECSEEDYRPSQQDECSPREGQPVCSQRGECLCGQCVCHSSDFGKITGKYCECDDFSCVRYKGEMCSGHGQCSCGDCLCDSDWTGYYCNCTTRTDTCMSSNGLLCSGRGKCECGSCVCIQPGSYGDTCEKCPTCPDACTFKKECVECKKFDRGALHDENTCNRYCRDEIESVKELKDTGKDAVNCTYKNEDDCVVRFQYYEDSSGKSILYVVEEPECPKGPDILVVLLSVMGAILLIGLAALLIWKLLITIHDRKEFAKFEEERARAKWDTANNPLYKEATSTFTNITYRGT
Integrin alpha-IIb/beta-3, sequence (P08514 32-887 limits assumed): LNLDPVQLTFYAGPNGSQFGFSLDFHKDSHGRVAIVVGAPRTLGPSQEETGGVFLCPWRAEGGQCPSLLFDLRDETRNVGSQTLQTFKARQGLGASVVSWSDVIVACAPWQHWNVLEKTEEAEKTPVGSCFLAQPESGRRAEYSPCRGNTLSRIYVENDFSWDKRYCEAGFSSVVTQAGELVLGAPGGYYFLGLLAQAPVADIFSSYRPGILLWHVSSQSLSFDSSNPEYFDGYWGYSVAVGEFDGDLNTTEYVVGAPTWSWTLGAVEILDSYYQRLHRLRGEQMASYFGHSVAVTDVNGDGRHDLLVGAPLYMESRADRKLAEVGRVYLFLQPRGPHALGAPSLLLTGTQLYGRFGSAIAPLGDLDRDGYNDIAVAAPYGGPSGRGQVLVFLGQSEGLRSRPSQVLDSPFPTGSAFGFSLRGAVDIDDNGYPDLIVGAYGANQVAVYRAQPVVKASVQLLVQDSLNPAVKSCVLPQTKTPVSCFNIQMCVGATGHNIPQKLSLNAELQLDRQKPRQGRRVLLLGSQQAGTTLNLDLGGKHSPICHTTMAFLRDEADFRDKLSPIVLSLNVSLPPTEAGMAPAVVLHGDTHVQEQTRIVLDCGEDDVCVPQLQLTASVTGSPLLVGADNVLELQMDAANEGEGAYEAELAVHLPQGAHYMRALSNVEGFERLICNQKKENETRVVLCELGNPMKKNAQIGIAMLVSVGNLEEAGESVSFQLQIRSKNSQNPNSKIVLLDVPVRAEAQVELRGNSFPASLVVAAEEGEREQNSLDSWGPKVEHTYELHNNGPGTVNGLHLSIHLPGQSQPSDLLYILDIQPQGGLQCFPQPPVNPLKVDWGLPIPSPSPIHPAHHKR
Integrin alpha-IIb/beta-3, sequence (P08514 891-1039 limits assumed): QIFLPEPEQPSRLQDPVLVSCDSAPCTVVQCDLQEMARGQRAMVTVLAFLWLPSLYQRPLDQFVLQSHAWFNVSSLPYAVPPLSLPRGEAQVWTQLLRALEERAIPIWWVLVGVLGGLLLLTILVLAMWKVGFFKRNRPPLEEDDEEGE
T1 sequence (P05106 27-788 limits assumed): as the sequence (P05106 27-788 limits assumed) above
T1 sequence (P06756 31-889 limits assumed): as the sequence (P06756 31-889 limits assumed) above
T1 sequence (P06756 891-1048 limits assumed): as the sequence (P06756 891-1048 limits assumed) above
Integrin alpha-V/beta-6, sequence (P06756 31-889 limits assumed): as the sequence (P06756 31-889 limits assumed) above
Integrin alpha-V/beta-6, sequence (P06756 891-1048 limits assumed): as the sequence (P06756 891-1048 limits assumed) above
Integrin alpha-V/beta-6, sequence (P18564 22-788 limits assumed): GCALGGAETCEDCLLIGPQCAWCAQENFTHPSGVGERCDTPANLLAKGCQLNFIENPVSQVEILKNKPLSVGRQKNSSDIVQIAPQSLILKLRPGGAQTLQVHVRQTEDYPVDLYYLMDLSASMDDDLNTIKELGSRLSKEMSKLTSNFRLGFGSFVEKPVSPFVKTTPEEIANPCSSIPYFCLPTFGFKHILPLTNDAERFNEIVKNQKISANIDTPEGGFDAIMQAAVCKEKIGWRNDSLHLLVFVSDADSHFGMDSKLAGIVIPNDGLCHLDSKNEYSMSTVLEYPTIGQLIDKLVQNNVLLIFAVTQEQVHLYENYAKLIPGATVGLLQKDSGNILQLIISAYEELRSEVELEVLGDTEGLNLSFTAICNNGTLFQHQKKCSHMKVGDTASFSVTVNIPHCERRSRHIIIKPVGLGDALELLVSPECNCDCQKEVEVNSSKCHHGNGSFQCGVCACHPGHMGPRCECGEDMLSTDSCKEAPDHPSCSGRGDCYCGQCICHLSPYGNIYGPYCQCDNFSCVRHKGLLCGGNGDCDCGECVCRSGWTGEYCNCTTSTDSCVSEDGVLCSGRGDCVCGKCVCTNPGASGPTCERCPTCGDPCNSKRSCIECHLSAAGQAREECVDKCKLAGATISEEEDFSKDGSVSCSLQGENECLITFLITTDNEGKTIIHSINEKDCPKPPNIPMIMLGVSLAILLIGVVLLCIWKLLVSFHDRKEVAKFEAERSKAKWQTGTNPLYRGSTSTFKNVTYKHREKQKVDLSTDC

IC50 (Integrin alpha-V/beta-3 [1]) [nM] | IC50 [2] [nM] | IC50 (Integrin alpha-V/beta-5) [nM] | IC50 (Integrin alpha-V/beta-3 [3]) [nM] | IC50 (Integrin alpha-V/beta-6) [nM] | IC50 (Integrin alpha-V/beta-1) [nM] | half-life [4] [h] | clearance [5] [L/h/kg] | Vd [6] [L/kg] | AUC/dose (Rattus norvegicus) | bioavailability [7] [%] | SMILES
2.4 | 126 |  |  |  |  |  |  |  |  |  | O=C(O)C[C@H](Cc1nc(CCCCNc2ccccn2)no1)c1ccc2c(c1)OCO2
0.78 | 17 | 4.6 | 0.74 | 4360 |  |  |  |  |  |  | O=C(O)C[C@H](Cc1nc(CCCCNc2cc(N3CCOCC3)ccn2)no1)c1ccc2c(c1)OCO2
0.5 | 65.4 |  | 0.32 | 486 | 2.7 |  |  |  |  |  | O=C(O)CC(Cc1nc(CCCc2ccc3c(n2)NCCC3)no1)c1ccc2ncoc2c1 (stereo not given)
2 | 91 |  |  |  |  |  |  |  |  |  | Cc1ccnc(NCCCCc2noc(C[C@@H](CC(=O)O)c3ccc4c(c3)OCO4)n2)c1
2.1 | 224 |  | 0.63 | 3020 | 9.7 | 1.2 | 1.04 | 0.803 | 970 ng·h/mL/(mg/kg) | 63 | O=C(O)CC(Cc1nc(CCCc2ccc3c(n2)NCCC3)no1)c1ccc2c(c1)OCC2 (stereo not given)
20 | 12600 |  |  |  |  |  |  |  |  |  | CC(C)(CC(=O)O)Cc1nc(CCCc2ccc3c(n2)NCCC3)no1
2.1 | 278 | 16 | 3.2 | > 10000 |  |  |  |  |  |  | CNc1cccc(CCCc2noc(CC(CC(=O)O)c3ccc4c(c3)OCO4)n2)n1 (stereo not given)
1.43 | 168 | 1.2 | 0.6 | 1590 |  | 1.8 | 0.334 | 0.497 | 3050 ng·h/mL/(mg/kg) | 96 | O=C(O)CC(Cc1nc(CCCc2ccc3c(n2)NCCC3)no1)c1cnc(C2CC2)s1 (stereo not given)
3.6 | 950 |  |  |  |  |  |  |  |  |  | CC(CC(=O)O)(Cc1nc(CCCc2ccc3c(n2)NCCC3)no1)c1cccnc1 (stereo not given)
1.75 | 419 | 3.7 | 1.1 | 3730 |  |  |  |  |  |  | O=C(O)CC(Cc1nc(CCCc2ccc3c(n2)NCCC3)no1)c1cccc(F)c1 (stereo not given)
9.5 | 8130 |  |  |  |  |  |  |  |  |  | O=C(O)CC1(Cc2nc(CCCc3ccc4c(n3)NCCC4)no2)CCCC1
8.7 | 1220 | 4 | 4 | 6240 |  |  |  |  |  |  | C#CC(CC(=O)O)Cc1nc(CCCc2ccc3c(n2)NCCC3)no1 (stereo not given)
12 | 9300 |  |  |  |  |  |  |  |  |  | CC(CC(=O)O)Cc1nc(CCCc2ccc3c(n2)NCCC3)no1 (stereo not given)
1.8 | 747 |  |  |  |  |  |  |  |  |  | O=C(O)CC(Cc1nc(CCCc2ccc3c(n2)NCCC3)no1)c1ccccc1 (stereo not given)
0.4 | 27 | 1.7 | 0.65 | 2660 | 2.6 | 1.4 | 0.654 | 0.733 | 1500 ng·h/mL/(mg/kg) | 95 | O=C(O)C[C@H](Cc1nc(CCCc2ccc3c(n2)NCCC3)no1)c1ccc2c(c1)OCO2
1.2 | 216 |  |  |  |  |  |  |  |  |  | O=C(O)CC(Cc1nc(CCCc2ccc3c(n2)NCCC3)no1)c1cnn(-c2ccccc2)c1 (stereo not given)
160 | 32500 |  |  |  |  |  |  |  |  |  | O=C(O)CCCc1nc(CCCc2ccc3c(n2)NCCC3)no1
0.65 | 18 |  |  |  |  | 1.1 | 1.15 | 0.622 | 600 ng·h/mL/(mg/kg) | 66 | O=C(O)CC(Cc1nc(CCCc2ccc3c(n2)NCCC3)no1)c1cnc2ccccc2c1 (stereo not given)
1 | 187 |  |  |  |  | 1.1 | 0.72 | 0.694 | 1910 ng·h/mL/(mg/kg) | 100 | COc1ccc(C(CC(=O)O)Cc2nc(CCCc3ccc4c(n3)NCCC4)no2)cn1 (stereo not given)
1.7 |  |  |  |  |  | 0.93 | 1.09 | 0.447 | 710 ng·h/mL/(mg/kg) | 77 | CN1CCNc2nc(CCCc3noc(CC(CC(=O)O)c4ccc5c(c4)OCO5)n3)ccc21 (stereo not given)
116 | 35800 |  |  |  |  |  |  |  |  |  | CC(CC(=O)O)(Cc1nc(CCCc2ccc3c(n2)NCCC3)no1)c1ccccc1 (stereo not given)
1.6 | 474 | 3.3 | 0.77 | 2420 |  |  |  |  |  |  | O=C(O)CC(Cc1nc(CCCc2ccc3c(n2)NCCC3)no1)c1cccnc1 (stereo not given)
1.28 | 423 |  |  |  |  |  |  |  |  |  | Cc1ncc(C(CC(=O)O)Cc2nc(CCCc3ccc4c(n3)NCCC4)no2)s1 (stereo not given)
1.1 | 64 |  |  |  |  |  |  |  |  |  | COc1ccnc(NCCCCc2noc(C[C@@H](CC(=O)O)c3ccc4c(c3)OCO4)n2)c1
0.26 | 22 | 2.9 | 0.62 | 2670 |  | 0.4 | 4.68 | 0.897 | 60 ng·h/mL/(mg/kg) | 29 | O=C(O)C[C@H](Cc1nc(CCCCNc2cc(N3CCSCC3)ccn2)no1)c1ccc2c(c1)OCO2

From ChEMBL document CHEMBL1138114, “Convergent, parallel synthesis of a series of beta-substituted 1,2,4-oxadiazole butanoic acids as potent and selective alpha(v)beta3 receptor antagonists” (Bioorg Med Chem Lett, 2006)
